Entries after “also recorded” stand apart in the source; their conditions may differ.
Tests used:
[1] = tested on: dementia-related cognitive impairment; details: Phase I-III trials, dementia-related indications; cited from earlier work
[2] = tested on: adolescent subjects previously diagnosed with ADHD who also had at least one genetic alteration in an mGluR network gene; test: Open-label Phase 1b clinical trial of NFC-1 in adolescent ADHD subjects with a CNV in an mGluR network gene; type: in vivo, human
[3] = tested on: group I and group II/III mGluRs; details: Hirouchi 2000; cited from earlier work
[4] = tested on: adolescent subjects previously diagnosed with ADHD who also had at least one genetic alteration in an mGluR network gene; details: recently completed precision-medicine-based clinical trial; cited from earlier work

| Structure (SMILES) | safety and tolerability [1] | OCD symptoms during therapy ([2]; eight of the 30 ADHD subjects with symptoms of OCD) | dermatillomania symptoms (ear scratching, bleeding ulcer) during therapy ([2]; one subject with OCD and a history of ear scratching) | score on Vanderbilt Scale items related to anxiety (nos. 41, 42, and 47) ([2]; week 5, two subjects, all 3 items, at enrollment maximum score of 3 on 2 of the 3 items) | total "never" score for all BRIEF anxiety/mood questions for all subjects ([2]; week 5 of dose escalation (50-400 mg bid), all 30 subjects, score at enrollment was 125) | total "often" score for all BRIEF anxiety/mood questions for all subjects ([2]; week 5 of dose escalation (50-400 mg bid), all 30 subjects, score at enrollment was 154) | activation of mGluRs in vitro [3] | treatment of ADHD in subjects having a genetic alteration in an mGluR network gene [4] |
| --- | --- | --- | --- | --- | --- | --- | --- | --- |
| O=C1CC[C@H](C(=O)N2CCCCC2)N1 [NFC-1, fasoracetam monohydrate] | generally safe and well tolerated | OCD symptoms improved | dermatillomania symptoms had reduced | 3 | 191 | 77 |  |  |
| O=C1CC[C@H](C(=O)N2CCCCC2)N1 [fasoracetam] |  |  |  |  |  |  | nonselective activator against all classes of mGluRs; also recorded: can stimulate both group I and group II/III mGluRs | successfully treated |

Source: patent US11806341B2, “Methods of diagnosing and treating anxiety disorder” (THE CHILDREN'S HOSPITAL OF PHILADELPHIA, priority 2015, dated 2023)
